# From patent US12344597B2, “Alkoxy-substituted pyridinyl derivatives as LPA1 receptor antagonists and their use in the treatment of fibrosis” (IDORSIA PHARMACEUTICALS LTD, priority 2018, dated 2025)
# Molecular target: human LPA1 receptor (Homo sapiens (Human), UniProt Q92633)
# Assay: Beta-arrestin recruitment assay to determine IC50 values for human LPAR1
# Assay type: cell-based
# Conditions: antagonist mode, Tango EDG2-bla U2OS cells, LPA 18:1 500 nM final
# Method in brief: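 Antagonist IC50 = concentration giving 50% inhibition of maximal LPA response. Read-out is beta-lactamase reporter activity after arrestin-protease recruitment in U2OS cells bearing LPA1-TEV-Gal4-VP16 construct; cells pre-incubated 20 h, 37 °C, 5% CO2.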
# Chain of human LPA1 receptor (Q92633 whole entry): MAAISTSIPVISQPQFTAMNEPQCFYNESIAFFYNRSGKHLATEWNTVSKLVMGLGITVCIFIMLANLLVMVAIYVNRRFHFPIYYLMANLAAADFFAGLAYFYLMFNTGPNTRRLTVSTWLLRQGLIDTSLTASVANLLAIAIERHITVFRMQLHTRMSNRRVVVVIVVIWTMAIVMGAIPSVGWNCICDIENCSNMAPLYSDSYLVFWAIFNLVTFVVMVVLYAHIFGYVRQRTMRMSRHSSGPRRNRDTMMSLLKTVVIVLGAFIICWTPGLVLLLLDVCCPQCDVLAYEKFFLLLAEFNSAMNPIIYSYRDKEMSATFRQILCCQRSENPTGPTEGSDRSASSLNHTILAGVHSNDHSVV
row,SMILES,IC50 [nM]
1,"Cc1ccc(NC(=O)C2(c3ccccc3C(C)C)CN(C(=O)Cn3nccn3)C2)c(OC(F)F)n1 [Ex 12-21, 1-(2-(2H-1,2,3-triazol-2-yl)acetyl)-N-(2-(difluoromethoxy)-6-methylpyridin-3-yl)-3-(2-isopropylphenyl)azetidine-3-carboxamide]",5.6
2,"Cc1ccc(NC(=O)C2(c3ccccc3C(C)C)CN(C(=O)c3cn[nH]c3)C2)c(OC(F)F)n1 [Ex 12-15, N-(2-(difluoromethoxy)-6-methylpyridin-3-yl)-3-(2-isopropylphenyl)-1-(1H-pyrazole-4-carbonyl)azetidine-3-carboxamide]",36
3,"Cc1ccc(NC(=O)C2(c3ccccc3C(C)C)CN(C(=O)CN(CC(=O)O)C3CC3)C2)c(OC(F)F)n1 [Ex 43, N-cyclopropyl-N-(2-(3-((2-(difluoromethoxy)-6-methylpyridin-3-yl)carbamoyl)-3-(2-isopropylphenyl)azetidin-1-yl)-2-oxoethyl)glycine]",14
4,"COc1cc(Cl)cnc1NC(=O)C1(c2ccccc2C(C)C)CN(S(N)(=O)=O)C1 [Ex 81-1, N-(5-chloro-3-methoxypyridin-2-yl)-3-(2-isopropylphenyl)-1-sulfamoylazetidine-3-carboxamide]",15
5,"Cc1ccc(NC(=O)C2(c3ccccc3C(C)C)CN(C(=O)C[C@@](C)(O)C(=O)O)C2)c(OC(F)F)n1 [Ex 12-116, (R)-4-(3-((2-(difluoromethoxy)-6-methylpyridin-3-yl)carbamoyl)-3-(2-isopropylphenyl)azetidin-1-yl)-2-hydroxy-2-methyl-4-oxobutanoic acid]",63
6,"COC(=O)c1cnc(CN2CC(C(=O)Nc3ccc(C)nc3OC(F)F)(c3ccccc3C(C)C)C2)cn1 [Ex 11-54, methyl 5-((3-((2-(difluoromethoxy)-6-methylpyridin-3-yl)carbamoyl)-3-(2-isopropylphenyl)azetidin-1-yl)methyl)pyrazine-2-carboxylate]",95
7,"CC(C)c1ccccc1C1(C(=O)Nc2cccnc2OC(F)F)CN(S(N)(=O)=O)C1 [Ex 15-6, N-(2-(difluoromethoxy)pyridin-3-yl)-3-(2-isopropylphenyl)-1-sulfamoylazetidine-3-carboxamide]",10
8,"Cc1ccc(NC(=O)C2(c3ccccc3C(C)C)CN(S(=O)(=O)CCC(=O)OCc3ccccc3)C2)c(OC(F)F)n1 [Ex 13-4, Benzyl 3-((3-((2-(difluoromethoxy)-6-methylpyridin-3-yl)carbamoyl)-3-(2-isopropylphenyl)azetidin-1-yl)sulfonyl)propanoate]",10
9,"CCOC(=O)CC(=O)N1CCC(C(=O)Nc2ccc(C)nc2OC(F)F)(c2ccccc2C(C)C)CC1 [Ex 12-65, ethyl-3-(4-((2-(difluoromethoxy)-6-methylpyridin-3-yl)carbamoyl)-4-(2-isopropylphenyl)piperidin-1-yl)-3-oxopropanoate]",3
10,"Cc1ccc(NC(=O)C2(c3ccccc3C(C)C)CN(C(=O)CCC(=O)O)C2)c(OC(C)C)n1 [Ex 12-68, 4-(3-((2-isopropoxy-6-methylpyridin-3-yl)carbamoyl)-3-(2-isopropylphenyl)azetidin-1-yl)-4-oxobutanoic acid]",33
11,"Cc1ccc(NC(=O)C2(c3ccccc3C(C)C)CN(C(=O)[C@H]3C[C@H]3C(=O)O)C2)c(OC(F)F)n1 [Ex 12-97, (1R,2S)-2-(3-((2-(difluoromethoxy)-6-methylpyridin-3-yl)carbamoyl)-3-(2-isopropylphenyl)azetidine-1-carbonyl)cyclopropane-1-carboxylic acid]",13
12,"Cc1ccc(NC(=O)C2(c3ccccc3C(C)C)CN(C(=O)CC3(C(=O)O)CCN(C)CC3)C2)c(OC(F)F)n1 [Ex 12-124, 4-(2-(3-((2-(difluoromethoxy)-6-methylpyridin-3-yl)carbamoyl)-3-(2-isopropylphenyl)azetidin-1-yl)-2-oxoethyl)-1-methylpiperidine-4-carboxylic acid]",56
13,"CNCCN1CC(C(=O)Nc2ccc(C)nc2OC(F)F)(c2ccccc2C(C)C)C1 [Ex 11-62, N-(2-(difluoromethoxy)-6-methylpyridin-3-yl)-3-(2-isopropylphenyl)-1-(2-(methylamino)ethyl)azetidine-3-carboxamide]",48
14,"Cc1ccc(NC(=O)C2(c3ccccc3C(C)C)CN(C(=O)NCC(=O)O)C2)c(OC(F)F)n1 [Ex 17-4, (3-((2-(difluoromethoxy)-6-methylpyridin-3-yl)carbamoyl)-3-(2-isopropylphenyl)azetidine-1-carbonyl)glycine]",34
15,"Cc1ccc(NC(=O)C2(c3c(F)cccc3C(C)C)CN(C(=O)CC(C)(C)C(=O)O)C2)c(OC(F)F)n1 [Ex 39-4, 4-(3-((2-(difluoromethoxy)-6-methylpyridin-3-yl)carbamoyl)-3-(2-fluoro-6-isopropylphenyl)azetidin-1-yl)-2,2-dimethyl-4-oxobutanoic acid]",5
16,"Cc1ccc(NC(=O)C2(c3ccccc3C(C)C)CN(S(=O)(=O)CCC(=O)O)C2)c(OC(F)F)n1 [Ex 13-5, 3-((3-((2-(difluoromethoxy)-6-methylpyridin-3-yl)carbamoyl)-3-(2-isopropylphenyl)azetidin-1-yl)sulfonyl)propanoic acid]",4
17,"COC(=O)c1cc(N2CC(C(=O)Nc3ccc(C)nc3OC(F)F)(c3ccccc3C(C)C)C2)ncn1 [Ex 18-12, methyl 6-(3-((2-(difluoromethoxy)-6-methylpyridin-3-yl)carbamoyl)-3-(2-isopropylphenyl)azetidin-1-yl)pyrimidine-4-carboxylate]",11
18,"CCCNS(=O)(=O)N1CC(C(=O)Nc2ccc(C)nc2OC(F)F)(c2ccccc2C(C)C)C1 [Ex 15-11, N-(2-(difluoromethoxy)-6-methylpyridin-3-yl)-3-(2-isopropylphenyl)-1-(N-propylsulfamoyl)azetidine-3-carboxamide]",6
19,"Cc1ccc(NC(=O)C2(c3ccccc3C(C)C)CN(C(=O)CNCC3(O)CC3)C2)c(OC(F)F)n1 [Ex 12-57, N-(2-(difluoromethoxy)-6-methylpyridin-3-yl)-1-(((1-hydroxycyclopropyl)methyl)glycyl)-3-(2-isopropylphenyl)azetidine-3-carboxamide]",17
20,"Cc1ccc(NC(=O)C2(c3ccccc3C(C)C)CN(S(=O)(=O)CC(C)(C)C(=O)O)C2)c(OC(F)F)n1 [Ex 13-12, 3-((3-((2-(difluoromethoxy)-6-methylpyridin-3-yl)carbamoyl)-3-(2-isopropylphenyl)azetidin-1-yl)sulfonyl)-2,2-dimethylpropanoic acid]",4
21,"Cc1ccc(NC(=O)C2(c3ccccc3C(C)C)CN(C(=O)CNCC3(C(=O)O)CC3)C2)c(OC(F)F)n1 [Ex 46, 1-(((2-(3-((2-(difluoromethoxy)-6-methylpyridin-3-yl)carbamoyl)-3-(2-isopropylphenyl)azetidin-1-yl)-2-oxoethyl)amino)methyl)cyclopropane-1-carboxylic acid]",100
22,"COC(=O)c1ccc(N2CC(C(=O)Nc3ccc(C)nc3OC(F)F)(c3ccccc3C(C)C)C2)nn1 [Ex 18-6, methyl 6-(3-((2-(difluoromethoxy)-6-methylpyridin-3-yl)carbamoyl)-3-(2-isopropylphenyl)azetidin-1-yl)pyridazine-3-carboxylate]",10
23,"Cc1ccc(NC(=O)C2(c3ccccc3C(C)C)CN(c3ncc(C(=O)O)n3C)C2)c(OC(F)F)n1 [Ex 18-36, 2-(3-((2-(difluoromethoxy)-6-methylpyridin-3-yl)carbamoyl)-3-(2-isopropylphenyl)azetidin-1-yl)-1-methyl-1H-imidazole-5-carboxylic acid]",16
24,"Cc1ccc(NC(=O)C2(c3ccccc3C(C)C)CN(C(=O)N[C@@H](C)C(=O)O)C2)c(OC(F)F)n1 [Ex 17-9, (3-((2-(difluoromethoxy)-6-methylpyridin-3-yl)carbamoyl)-3-(2-isopropylphenyl)azetidine-1-carbonyl)-L-alanine]",48

# Tested on: LPA-induced skin vascular leakage
# Assay: mouse LPA-induced skin vascular leakage model
# Assay type: in vivo
# Conditions: mice, oral administration of 100 mg/kg, LPA-induced vascular leakage (Evans blue)
# Description: Assessment of In Vivo Potency
# The in vivo potency of the compounds of formulae (I), (II) and (III) can be determined using a mouse LPA-induced skin vascular leakage model. Female Balb/c mice are treated with either vehicle or test compound (p.o.) for at least 1 h prior to administration of the albumin marker Evans blue (50 mg/kg, i.v., 0.9% NaCl) and subsequent challenge with LPA (5 μg, i.d.). After 30 minutes, mice are sacrificed by CO2 inhalation. Discs of skin from the injection sites are removed, digested in formamide (500 μl, 37° C., 24 hrs) and the content of Evans blue quantified by colorimetric assay. Results are expressed as extravasated Evans blue per skin disc (μg/disc).
# As an example, the compound of Ex 12-21 is able to effectively reduce LPA-induced vascular leakage after oral administration of 100 mg/kg to mice as compared to a group of animals treated with vehicle only. Reduction of vascular leakage compared to vehicle group was ≥60%.
row,SMILES,Reduction of vascular leakage compared to vehicle group [%]
1,"Cc1ccc(NC(=O)C2(c3ccccc3C(C)C)CN(C(=O)Cn3nccn3)C2)c(OC(F)F)n1 [Ex 12-21, 1-(2-(2H-1,2,3-triazol-2-yl)acetyl)-N-(2-(difluoromethoxy)-6-methylpyridin-3-yl)-3-(2-isopropylphenyl)azetidine-3-carboxamide]",≥ 60
